Laboratory results taken from patent publication US20200218874A1, “A LABEL-FREE METHOD AND SYSTEM FOR MEASURING DRUG RESPONSE KINETICS OF THREE-DIMENSIONAL CELLULAR STRUCTURES” (AGENCY FOR SCIENCE, TECHNOLOGY AND RESEARCH, priority 2017, published 2020).
“Also recorded” adds a separate entry of the source.

Legend:
[1] = test system: patient-derived tumour spheroids (head and neck cancer patient); test: Label-free image-based drug response (LaFOS) of 3D tumour spheroids over time; format: cell-based, human; settings: for response of tumour spheroids over time (LaFOS time-course): 24, 48 and 72 hours after treatment, 1 μM
Experimental: The examples used in this disclosure were generated by seeding 5000 cells into each well of Corning® 384 Well Black Clear Round Bottom Ultra-Low Attachment Spheroid Microplates. The assay plates were incubated at 37° C., 5% CO2 over 3 days to allow formation of the tumour spheroids. At 96 hours, the spheroids were imaged (labelled as “untreated” in the study) using a confocal microscope at 20× (Perkin Elmer Opera Phenix High Content Screening system) and then treated at 1 μM of the compounds (in DMSO). In total, 1,231 spheroids were generated and treated in duplicates at 96 hours with small molecule and kinase inhibitors from the Selleck Anti-cancer library and Selleck Kinase Inhibitor chemical library. The drug treated spheroids were imaged subsequently at 24, 48 and 72 hours after treatment.
Bright-field images of the 1,231 spheroids acquired at different time-points and z-planes were computationally segmented into proliferating (red), quiescent (green) and necrotic (yellow) zones through a method referred to as “Spheroid Peeling” (FIG. 5). Other imaging methods can also be used—Phase contrast imaging, electron microscopy, wide-field, dark-field, super-resolution microscopy, and many more.
Briefly, “Spheroid Peeling” involves repeatedly segmenting the spheroid image from the periphery to the core zone. The entire spheroid was first segmented as an object (hereby referred to as spheroid object) and cropped from the original well image (FIG. 6). An “inner core” was then identified from the spheroid object, hereby referred to as quiescent object. The proliferating zone was obtained by masking the quiescent object from the spheroid object. Similarly, the necrotic zone was identified as the “inner core” of the quiescent object, and the quiescent zone was obtained by masking the necrotic zone from the quiescent object. A number of image features were quantified from each of the proliferating, quiescent and necrotic zones, resulting in a total of 504 image descriptors for each spheroid. The “spheroid peeling” algorithm can be written in a number of languages or image analysis tool, such as Cell Profiler, MATLAB or ImageJ.
FIG. 19 is a flow diagram 700 showing a machine learning based training method in accordance with the present disclosure for generating a computational model (or learning model) of drug response in spheroids. Two sets of spheroids were generated for imaging and for viability measurement, respectively. The two sets of spheroids were treated with the same drugs. For feasibility testing, a training set of 1,231 spheroids 1902 was generated. At 72 hours after drug treatment, acquisition 1904 of bright-field images 1906 was obtained. As data preprocessing 708, “Spheroid Peeling” 1910 was applied to obtain, through image feature quantification 1912, 504 image descriptors from the Proliferating, Quiescent and Necrotic zones of each tumour spheroid, resulting in over ˜600K image descriptors 1916 in total.
The learning process generated a computational model 1922 that can be perceived as a complex multi-feature numerical quantification of the drug response of the spheroids. Generating the computational model includes one or more of training the computational model or determining parameters of the computational model. […]

[2] = test system: spheroids derived from a head and neck cancer patient; test: Micrograph morphology of drug-treated patient-derived spheroids; format: cell-based, human; settings: spheroids approximately 500 microns
Description: All three patient-derived spheroids are of similar sizes of approximately 500 microns.
On the other hand, morphological-based methods primarily use the size/volume or shape of the spheroids.

HN120M PDX = test: In vivo treatment of HN120M PDX-bearing mice; settings: mice n=6, 5 mg kg^−1 i.p. once every 2 days
Description: (§1) Generation and passaging of PDXs. Tumour samples were obtained from patients post-surgery after obtaining informed patient consent in accordance to SingHealth Centralized Institutional Review Board (CIRB: 2014/2093/B). Tumours were minced into 1 mm^3 fragments and suspended in a mixture of 5% Matrigel (Corning, cat. no. 354234) in DMEM/F12 (Thermo Fisher, cat. no. 10565-018). The tumour fragment mixtures were then implanted subcutaneously into the left and right flanks of 5-7 weeks old NSG (NOD.Cg-Prkdcscid II2rgtm1Wjl/SzJ) (Jackson Laboratory, stock no. 005557) mice, using 18-gauge needles. Tumours were excised and passaged when they reached 1.5 cm^3. […]
(§2) Gefitinib (Iressa) was prepared by dissolving a 250 mg clinical grade tablet (AstraZeneca) in sterile water containing 0.05% Tween-80 (Sigma-Aldrich, cat. no. P4780) to a concentration of 10 mg/mL and administered at a dosage of 25 mg/kg daily via oral gavage. […] The length and width of tumours were measured by caliper once every 2 days. […] The weight of tumour was not directly measured, but were estimated using volume where the density of tissue was assumed to be 1 g/cm^3. The ratio of the change in treated tumour volume (ΔT) to the average change in control tumour volume (ΔT/Average ΔC) at each time point was calculated as follows: […]

HN137M PDX = test: In vivo treatment of HN137M PDX-bearing mice; settings: male mice n=5, 2 mg kg^−1 i.p. once every 2 days
Description: as §1, §2

HN137P PDX = test: In vivo treatment of HN137P PDX-bearing mice; settings: male mice n=5, 2 mg kg^−1 i.p. once every 2 days
Description: as §1, §2

Cn1c(=O)n(-c2ccc(C(C)(C)C#N)cc2)c2c3cc(-c4cnc5ccccc5c4)ccc3ncc21 [BEZ235]
response of tumour spheroids over time (LaFOS time-course) [1]: remain unchanged; also recorded: unresponsive

N.N.[Cl][Pt][Cl] [Cisplatin]
morphological structure of tumour spheroid ([2]; high concentration): enlarged core zone | morphological structure of tumour spheroid ([2]; low concentration): resembled that of the untreated spheroid

CN1CC[C@H](c2c(O)cc(O)c3c(=O)cc(-c4ccccc4Cl)oc23)[C@H](O)C1 [Flavopiridol]
efficacy in in vivo model (PDX) (HN120M PDX): already validated in in vivo models

COc1ncc(-c2ccc3nccc(-c4ccnnc4)c3c2)cc1NS(=O)(=O)c1ccc(F)cc1F [GSK2126458]
response of tumour spheroids over time (LaFOS time-course) [1]: increasing efficacy | inhibition at 1 µM ([1]; Homo sapiens, over the course of 72 hours, duplicate spheroids (R1 and R2), treated at 1 μM, read-out: inhibition rate (4-dimensional drug response of tumor spheroids)): 80%

COc1cc(N2CCC(N3CCN(C)CC3)CC2)ccc1Nc1ncc(Cl)c(Nc2ccccc2S(=O)(=O)C(C)C)n1 [NVP-TAE684]
response of tumour spheroids over time (LaFOS time-course) [1]: increasing efficacy | inhibition rate (4-dimensional drug response of tumor spheroids) ([1]; over the course of 72 hours, duplicate spheroids (R1 and R2), treated at 1 μM): 60%

COCCn1c2c([n+](Cc3cnccn3)c1C)C(=O)c1ccccc1C2=O [YM155]
anti-tumour effect in PDX (tumour volume vs vehicle) (HN137M PDX): significant anti-tumour effect | anti-tumour effect in PDX (tumour volume vs vehicle) (HN137P PDX): did not display significant sensitivity
